# Active and inactive are the calls of the source. Rule as the data show it: active = IC50 below about 9 µM; inactive = the rest.
# Molecular target: Tyrosine-protein kinase JAK2 (Homo sapiens) (UniProt O60674)
# Experiment: JAK2V617F kinase, IRF1 reporter and Ba/F3 cytotoxicity panel, late-stage follow-up, HEL and Ba/F3 cells (AID 2165)
# Chain of Tyrosine-protein kinase JAK2 (Homo sapiens) (O60674 whole entry, looked up, change not shown): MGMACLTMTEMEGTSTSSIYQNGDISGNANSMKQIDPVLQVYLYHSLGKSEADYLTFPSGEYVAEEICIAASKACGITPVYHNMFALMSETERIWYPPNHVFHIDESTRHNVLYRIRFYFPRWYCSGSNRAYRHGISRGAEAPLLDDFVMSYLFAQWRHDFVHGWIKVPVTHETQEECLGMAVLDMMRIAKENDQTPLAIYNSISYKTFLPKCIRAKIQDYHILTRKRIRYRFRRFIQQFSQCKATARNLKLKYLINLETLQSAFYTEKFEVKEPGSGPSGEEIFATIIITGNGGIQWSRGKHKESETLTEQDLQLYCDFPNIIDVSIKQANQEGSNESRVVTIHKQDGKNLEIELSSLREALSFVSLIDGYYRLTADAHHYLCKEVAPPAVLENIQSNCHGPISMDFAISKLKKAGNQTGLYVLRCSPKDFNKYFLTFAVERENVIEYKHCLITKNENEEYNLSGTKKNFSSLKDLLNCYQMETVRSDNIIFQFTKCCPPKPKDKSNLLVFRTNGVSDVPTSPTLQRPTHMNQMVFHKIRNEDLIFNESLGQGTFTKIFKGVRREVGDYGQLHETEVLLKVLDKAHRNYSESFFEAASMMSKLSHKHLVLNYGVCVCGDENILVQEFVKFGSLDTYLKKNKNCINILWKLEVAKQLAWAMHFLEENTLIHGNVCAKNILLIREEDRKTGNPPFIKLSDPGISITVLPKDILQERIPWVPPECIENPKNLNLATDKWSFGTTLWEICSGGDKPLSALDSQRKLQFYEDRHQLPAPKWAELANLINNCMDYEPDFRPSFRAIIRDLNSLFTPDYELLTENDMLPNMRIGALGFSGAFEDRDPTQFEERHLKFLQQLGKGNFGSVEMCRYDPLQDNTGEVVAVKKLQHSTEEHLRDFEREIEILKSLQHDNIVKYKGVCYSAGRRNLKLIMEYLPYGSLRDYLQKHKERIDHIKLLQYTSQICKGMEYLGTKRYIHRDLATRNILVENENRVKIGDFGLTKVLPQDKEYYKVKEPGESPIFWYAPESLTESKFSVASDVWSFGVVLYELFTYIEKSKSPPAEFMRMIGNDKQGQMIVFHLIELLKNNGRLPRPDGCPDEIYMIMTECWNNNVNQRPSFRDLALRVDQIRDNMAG
SMILES,"IC50 (Ba/F3, irf1 reporter)","IC50 (HEL, irf1 reporter)",IC50 (JAK2V617F)
CCCOc1ccc(C(=O)C(CN2CCOCC2)c2ccccc2)cc1 (stereo unspecified),> 40 µM (inactive),11.4 µM,
COc1cccc(F)c1C(C[N+](=O)[O-])c1c(N)n(C)c(=O)n(C)c1=O (stereo unspecified),5.77 µM,9.37 µM,
CNC(=O)c1nnsc1S(=O)c1ccc(Cl)cc1 (stereo unspecified),0.199 µM,12.1 µM,
Cc1cccc(N(Cc2ccccc2)C(=O)CCl)c1,1.13 µM,4.76 µM,
COc1ccc(C)cc1NC(=O)Nc1ccc(Br)cn1,,> 40 µM (inactive),> 40 µM (inactive)
Cc1ccc(O)c(NC(=O)COc2ccc(F)cc2)c1,,,21.8 µM
COc1ccccc1OCC(=O)Nc1cc(C)ccc1O,,,0.0392 µM
O=C1/C(=C/c2ccc(O)c(O)c2)SC(=S)N1Nc1ccccc1,4.04 µM,10.2 µM,
Cc1[nH]c(=O)c(C(=O)/C=C/c2ccccc2)c2c1CCCC2,> 40 µM (inactive),2.03 µM,1.15 µM
Cc1c(Cc2ccccc2)c(=O)oc2c(O)c(O)ccc12,6.58 µM,31.9 µM,
CCCn1c(CN(C)Cc2ccccc2)nc2c1c(=O)n(C)c(=O)n2C,6.43 µM,> 40 µM (inactive),
CCOc1ccc(Nc2nc(N)nc(CCl)n2)cc1,11.2 µM,0.452 µM,
O=C(NC1C=CS(=O)(=O)C1)c1sc2ccccc2c1Cl (stereo unspecified),8.98 µM,> 40 µM (inactive),
COc1cc2ncnc(NC(C)C)c2cc1OC,,> 40 µM (inactive),> 40 µM (inactive)
Cc1ccc(O)c(NC(=O)COc2ccc(C)c(C)c2)c1,,,> 40 µM (inactive)
CCC(C)[C@@H](NC(=O)OC(C)(C)C)c1nnc(S(=O)(=O)Cc2cccc(C)c2)o1 (stereo partly specified),0.24 µM,21.7 µM,
COCCOc1cc2nc[nH]c(=O)c2cc1OCCOC,,> 40 µM (inactive),> 40 µM (inactive)
N#CC(C#N)=Cc1ccc(O)c(O)c1,0.24 µM,> 40 µM (inactive),> 40 µM (inactive)
Cc1ccccc1CS(=O)(=O)c1nnc([C@H](Cc2ccccc2)NC(=O)OC(C)(C)C)o1,1.56 µM,13.5 µM,

SMILES,"IC50 (Ba/F3, irf1 reporter)","IC50 (HEL, irf1 reporter)",IC50 (JAK2V617F)
Cc1ccc(O)c(NC(=O)COc2cc(C)c(Cl)c(C)c2)c1,,,> 40 µM (inactive)
Clc1ccc(-n2nnnc2Sc2ncnc3sccc23)cc1,1.19 µM,23.3 µM,
COc1ccccc1/C=C/C(=O)c1c2c(c(C)[nH]c1=O)CCCC2,> 40 µM (inactive),1.3 µM,1.27 µM
O=C(Oc1cccc2c(O)cccc12)c1ccccc1,8.18 µM,> 40 µM (inactive),
COCCOc1cc2ncnc(Nc3cccc(C#Cc4ccc(-c5ccccc5)cc4)c3)c2cc1OCCOC,,> 40 µM (inactive),3.81 µM
CC1CCN(CCCNC(=O)c2cc3c(Cl)nc4ccccc4c3s2)CC1,9.98 µM,> 40 µM (inactive),
COc1cc2ncnc(Nc3cccc(C)c3)c2cc1OC,,7.18 µM,> 40 µM (inactive)
O=C(NCCc1cccnc1)C1CCC(=O)N(CCc2cccc(F)c2)C1 (stereo unspecified),,> 40 µM (inactive),> 40 µM (inactive)
Cc1cc(SCC(=O)N/N=C/c2ccc(O)c(O)c2)c(C)cc1Br,2.02 µM,> 40 µM (inactive),
CCN(CC)S(=O)(=O)c1cccc(-n2c(O)c(C=Nc3ccccc3C(=O)O)c3ccccc3c2=O)c1,> 40 µM (inactive),> 40 µM (inactive),
Cc1ccc(Cn2ccsc2=NC(=O)CCl)cc1,6.74 µM,3.11 µM,
Cc1cccc(OCC(=O)Nc2cccc(C)c2C)c1,,,> 40 µM (inactive)
CC1CCCN(CCCNC(=O)c2cc3c(Cl)nc4ccccc4c3s2)C1 (stereo unspecified),11.6 µM,> 40 µM (inactive),
COc1cc2ncnc(Nc3ccc(OC(F)(F)F)cc3)c2cc1OC,,3.77 µM,> 40 µM (inactive)
COc1ccc(-c2cnc3c(c2)CCC3(C#N)C#N)cc1,14.4 µM,10.4 µM,
COc1ccc(N2CCc3c(C)nc4c(OC)cc(OC)cc4c32)c(OC)c1,7.67 µM,,
c1ccc2c(c1)CSc1sccc1C2=C1CCNCC1,5.89 µM,> 40 µM (inactive),
CC(C)(C)/C(O)=C/c1nc2cc(Cl)ccc2oc1=O,4.13 µM,12.6 µM,
Cc1[nH]c(=O)c(C(=O)C=Cc2ccc(C(C)C)cc2)c2c1CCCC2,0.84 µM,6.33 µM,2.29 µM

SMILES,"IC50 (Ba/F3, irf1 reporter)","IC50 (HEL, irf1 reporter)",IC50 (JAK2V617F)
Oc1ccccc1OCCOc1ccccc1OCCOc1ccccc1O,6.74 µM,15.9 µM,
CCCn1c(CC)nc([N+](=O)[O-])c1S(=O)(=O)c1ccccc1,4.37 µM,4.36 µM,
Cc1ccc2nc(C)cc(Nc3ccc([N+](=O)[O-])cc3)c2c1,3.43 µM,5.98 µM,
Cc1ccc(O)c(NC(=O)COc2cccc(C)c2C)c1,,,> 40 µM (inactive)
Cc1cccc(NC(=O)COc2cccc(C)c2)c1,,,> 40 µM (inactive)
c1ccc(CCNc2nc(-c3ccccn3)nc3ccccc23)cc1,5.49 µM,2.88 µM,
Cc1[nH]c2ccccc2c(=O)c1C(=O)/C=C/c1ccccc1,> 40 µM (inactive),3.98 µM,
CCC(C)Nc1ncnc2cc(OC)c(OC)cc12 (stereo unspecified),,> 40 µM (inactive),1.79 µM
Cc1nnc(NC(=O)COc2ccccc2)s1,,> 40 µM (inactive),> 40 µM (inactive)
C/C(=C\c1ccc(N(C)C)cc1)[N+](=O)[O-],2.65 µM,4.29 µM,
O=S(=O)(c1cnc(Cl)c(Cl)c1)N1CCc2ccccc21,6.39 µM,> 40 µM (inactive),
Cc1ccc(O)c(NC(=O)COc2ccc(C3CCCCC3)cc2)c1,,,> 40 µM (inactive)
Cc1ccc(O)c(NC(=O)COc2cc(C)ccc2C)c1,,,2.23 µM
CC(C)(C)OC(=O)N[C@@H](Cc1ccccc1)c1nnc(S(=O)(=O)Cc2cccc(F)c2)o1,0.904 µM,26.3 µM,
O=C(CCl)N=c1sccn1Cc1ccccc1Cl,9.38 µM,1.62 µM,
CS(=O)(=O)c1nc(-c2ccco2)cc(C(F)(F)F)n1,0.869 µM,7.42 µM,
CCCCCCN(C(=O)CCl)c1ccccc1,3.62 µM,8.71 µM,
Cc1cc2[nH]c3c(c[n+](C)c4ccccc34)c2cc1C,7.72 µM,7.35 µM,

# From PubChem BioAssay AID2165 (The Scripps Research Institute Molecular Screening Center, 2009)
